{"source": "PubChem BioAssay (NCI)", "note": "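Compound exposure: 48 hours, 5 concentrations, 96-well plates. At the GI50, growth is halved. TGI denotes the concentration required for complete inhibition of growth.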"}
{"system": "MDA-MB-468 breast", "assay": "growth of human tumour cells (NCI), 48 h", "units": {"GI50": "µM", "TGI": "µM"}}
{"smiles": "Nc1nc2ccc([C@@H]3Nc4ccc5[nH]ncc5c4[C@H]4[C@H]5CCC(C5)[C@H]43)cc2s1", "GI50": 0.403, "TGI": 2.53}
{"smiles": "Nc1nc2c(c3ncccc13)C(c1cccc(Cl)c1)Cc1ncccc1-2", "note": "(centres undefined)", "GI50": 1.61, "TGI": 22.7}
{"smiles": "CN1CCN(c2ccc(-c3cnc4c(-c5csc6ccccc56)cnn4c3)cc2)CC1", "GI50": "> 15", "TGI": "> 15"}
{"smiles": "COC(=O)c1ccc(=O)c2nc3/c(=C/O)c(O)cc(=O)c3[nH]c12", "GI50": 0.937, "TGI": 48.5}
{"smiles": "Nc1ccc(C#Cc2cncnc2Nc2ccc(OCc3cccc(F)c3)c(Cl)c2)cc1", "GI50": 1.15, "TGI": 9.24}
{"smiles": "COc1cc2cc(Oc3ccc(NC(=O)Nc4ccccc4)cc3)c(C)nc2cc1OCCN1CCCCC1", "GI50": 5.64, "TGI": 10.8}
{"smiles": "N#C/C(=C\\c1ccc(Br)cc1)n1nnc2cccc(F)c21", "GI50": 0.327, "TGI": 1.15}
{"smiles": "COc1ccc(/C=C(/C(=O)N2CCCC2)c2cc(OC)c(OC)c(OC)c2)cc1N", "GI50": 1.28, "TGI": "> 100"}
{"smiles": "CN1CCN(CC(=O)Nc2ccc3ncnc(Nc4ccc(Oc5cccc(C(F)(F)F)c5)c(Cl)c4)c3c2)CC1", "GI50": 1.16, "TGI": 2.66}
{"smiles": "COc1ccc(-c2cnc(-c3ccc(F)cc3)[nH]2)cc1", "GI50": 2.22, "TGI": 7}
{"smiles": "CCCCCCCCOc1ccc(/C=N/Nc2cc(C)nc3ccc(Cl)cc23)cc1", "GI50": 1.79, "TGI": 3.42}
{"smiles": "NC1=NC(c2ccccc2)N=C(Nc2ccccc2)N1", "note": "(centres undefined)", "GI50": 44.4, "TGI": "> 100"}
{"smiles": "CC[N+](CC)=c1ccc2nc3c(cc(NCc4ccccc4)c4ccccc43)oc-2c1", "GI50": 0.134, "TGI": 1.07}
{"smiles": "CN(C)CCNC(=O)c1cccc2cc3ccccc3nc12", "GI50": 1.26, "TGI": 4.21}
{"smiles": "CCOC(=O)/C=C1\\SC(=Nc2ccc(C#N)cc2)N(CCN2C(=O)/C(=C/C(=O)OCC)SC2=Nc2ccc(C#N)cc2)C1=O", "GI50": 3.1, "TGI": 17.4}
{"smiles": "COc1ncc(-c2nc3c(n2C(C)C)[C@H](c2ccc(Cl)cc2)N(c2cc(Cl)cn(C)c2=O)C3=O)c(OC)n1", "GI50": 18.2, "TGI": 71.4}
{"smiles": "N#CC1C(=N)Cc2ccccc2-c2ccccc21", "note": "(centres undefined)", "GI50": 3.15, "TGI": 13.4}
{"smiles": "O=C(Oc1ccc([N+](=O)[O-])cc1)N1CCN(Cc2cccc(Oc3ccccc3)c2)CC1", "GI50": 19.1, "TGI": "> 100"}
{"smiles": "C=C(CNCCc1ccc(O)cc1)[C@@H]1CC[C@]2(CO)CC[C@]3(C)[C@H](CC[C@@H]4[C@@]5(C)CCC(=O)C(C)(C)[C@@H]5CC[C@]43C)[C@@H]12", "GI50": 1.53, "TGI": 3.1}
{"smiles": "C=C1C(=O)O[C@H]2[C@H]1CC/C(COC(=O)C(=O)c1c[nH]c3ccc(OC)cc13)=C\\CC[C@@]1(C)O[C@@H]21", "GI50": 2.17, "TGI": 4.77}
{"smiles": "CCNC(=O)Oc1ccc(/C(=C(/C)c2ccc(Cl)cc2)c2ccc(OCCN3CCCCCC3)cc2)cc1", "GI50": 1.44, "TGI": 3.07}
{"smiles": "CC(CN)[C@@H]1CC[C@]2(CO)CC[C@]3(C)[C@H](CC[C@@H]4[C@@]5(C)CCC(NCCO)C(C)(C)[C@@H]5CC[C@]43C)[C@@H]12", "note": "(some centres undefined)", "GI50": 1.48, "TGI": 3.08}
{"smiles": "O=C(Nc1cnn2ccc(N3CCC[C@@H]3c3cc(F)ccc3F)nc12)N1CC[C@H](O)C1", "GI50": "> 100", "TGI": "> 100"}
{"smiles": "COc1ccc2nc(NCCCNCCO)c3sc4ccc(F)cc4c(=O)c3c2c1", "GI50": 1.71, "TGI": 3.28}
{"smiles": "Cc1ccc(S(=O)(=O)Oc2ccc3c4c(c(=O)oc3c2)CCCCC4)cc1", "GI50": 2.77, "TGI": "> 100"}
{"smiles": "COC(=O)c1c2c(c(C)[n+]([O-])c1C)C(=O)C=C(NCc1cccc(OC)c1)C2=O", "GI50": 0.257, "TGI": 0.797}
{"smiles": "CS(=O)(=O)N1CCN(Cc2cc3nc(-c4cccc5[nH]ncc45)nc(N4CCOCC4)c3s2)CC1", "note": "(tested in a mixture with another compound)", "GI50": 0.109, "TGI": 0.697}
{"smiles": "Cn1ccc(=Nc2ccc(NC(=O)c3ccc(N=c4ccn(C)c5ccc([N+](=O)[O-])cc45)cc3)cc2)cc1", "GI50": 7.28, "TGI": "> 100"}
{"smiles": "O=C1C(Cl)=C(Nc2ccc3cn[nH]c3c2)C(=O)c2ccccc21", "GI50": 1.14, "TGI": 2.4}
{"smiles": "COc1ccc(C2NCCc3c2[nH]c2ccccc32)cc1CN1CCN(c2ccc(F)cc2)CC1", "note": "(centres undefined)", "GI50": 1.67, "TGI": 3.36}
{"smiles": "COC(=O)[C@]12CC[C@@H](C)[C@H](C)[C@@H]1C1=CC[C@@H]3[C@@]4(C)C(C=O)=C[C@@](C)(COC(C)=O)[C@@H]4[C@H](O)C[C@@]3(C)[C@]1(C)CC2", "GI50": 2.04, "TGI": 4.4}
{"smiles": "C/C=C(\\C)C(=O)O[C@@H]1C(O)[C@H]2OC(COC(=O)CCC(=O)CCCCCC[C@H](CCCCC)O[C@@H]3OC(C)[C@H](OC(C)=O)C(O)[C@H]3O2)[C@H]1OC(=O)/C=C/c1ccccc1", "note": "(some centres undefined)", "GI50": "< 0.01", "TGI": 1.18}
{"smiles": "Cc1ccc(N=C2CSc3nnc(-c4csc5c4CCCC5)n3N2)cc1", "GI50": 0.142, "TGI": "> 50"}
{"smiles": "Nc1c(C(=O)c2cccc(OCCN3CCOCC3)c2)cnn1-c1ccc(F)cc1", "GI50": "> 25", "TGI": "> 25"}
{"smiles": "COc1cc(NN=C(c2ccc(O)cc2)c2ccc(O)cc2)c([N+](=O)[O-])cc1[N+](=O)[O-]", "GI50": 12.5, "TGI": 25}
{"smiles": "Nc1ccn([C@H]2C[C@@H](O)[C@@H](CO)S2)c(=O)n1", "GI50": "> 100", "TGI": "> 100"}
{"smiles": "O=C1/C(=C/c2ccccc2)SC(=Nc2ccccc2)N1Nc1ccccc1", "GI50": 14, "TGI": "> 100"}
